Results from ChEMBL document CHEMBL1201862, “PubChem BioAssay data set” (2004).
Activity calls are given as the source filed them.

Legend:
[1] = target: T1, DNA repair protein RAD52 homolog (Homo sapiens, UniProt P43351); assay type: functional, biochemical
T1 sequence (P43351 whole entry): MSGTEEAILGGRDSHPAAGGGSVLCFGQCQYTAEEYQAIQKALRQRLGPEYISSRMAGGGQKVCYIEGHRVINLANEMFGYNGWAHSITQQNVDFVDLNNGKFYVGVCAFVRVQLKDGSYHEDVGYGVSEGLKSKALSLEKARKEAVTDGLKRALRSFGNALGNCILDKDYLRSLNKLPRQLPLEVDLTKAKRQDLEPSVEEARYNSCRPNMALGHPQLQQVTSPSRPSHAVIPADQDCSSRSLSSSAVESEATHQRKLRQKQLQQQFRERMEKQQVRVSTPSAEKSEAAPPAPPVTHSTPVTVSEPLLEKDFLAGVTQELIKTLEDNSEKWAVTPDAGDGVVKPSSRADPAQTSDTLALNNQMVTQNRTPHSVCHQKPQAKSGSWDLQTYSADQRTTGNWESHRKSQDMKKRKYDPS

[2] = target: T2, DNA repair and recombination protein RAD54-like (Homo sapiens, UniProt Q92698); test: RAD54 Holliday junction migration blockers – biochemical, fluorescence, cherry-picked samples, dose series, confirmation (AID 651657); assay type: functional
T2 sequence (Q92698 whole entry): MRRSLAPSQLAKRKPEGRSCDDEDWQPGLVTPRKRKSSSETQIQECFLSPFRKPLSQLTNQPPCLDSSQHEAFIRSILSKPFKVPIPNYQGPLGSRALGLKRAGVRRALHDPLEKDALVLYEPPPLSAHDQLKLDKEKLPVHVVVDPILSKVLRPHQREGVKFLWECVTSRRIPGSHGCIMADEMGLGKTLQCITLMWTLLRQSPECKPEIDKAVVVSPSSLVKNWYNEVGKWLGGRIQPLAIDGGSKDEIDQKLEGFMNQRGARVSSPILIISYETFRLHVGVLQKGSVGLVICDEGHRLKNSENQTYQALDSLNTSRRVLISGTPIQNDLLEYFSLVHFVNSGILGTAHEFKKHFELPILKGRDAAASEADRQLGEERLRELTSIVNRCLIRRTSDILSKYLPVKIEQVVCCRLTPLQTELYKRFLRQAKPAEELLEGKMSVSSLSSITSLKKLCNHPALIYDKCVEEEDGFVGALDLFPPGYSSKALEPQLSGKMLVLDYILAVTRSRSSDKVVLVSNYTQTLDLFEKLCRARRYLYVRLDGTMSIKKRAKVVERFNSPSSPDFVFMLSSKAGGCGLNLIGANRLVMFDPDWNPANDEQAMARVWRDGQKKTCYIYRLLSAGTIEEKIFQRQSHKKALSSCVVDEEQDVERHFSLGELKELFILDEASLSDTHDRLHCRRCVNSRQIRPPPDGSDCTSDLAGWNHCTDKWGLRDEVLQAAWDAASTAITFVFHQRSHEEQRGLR

Galanin receptor type 3 = target: T3, Galanin receptor type 3 (Homo sapiens, UniProt O60755); test: Fluorescence-based cell-based primary high throughput dose response assay to identify antagonists of the Galanin Receptor 3 (GalR3).; assay type: functional
T3 sequence (O60755 whole entry): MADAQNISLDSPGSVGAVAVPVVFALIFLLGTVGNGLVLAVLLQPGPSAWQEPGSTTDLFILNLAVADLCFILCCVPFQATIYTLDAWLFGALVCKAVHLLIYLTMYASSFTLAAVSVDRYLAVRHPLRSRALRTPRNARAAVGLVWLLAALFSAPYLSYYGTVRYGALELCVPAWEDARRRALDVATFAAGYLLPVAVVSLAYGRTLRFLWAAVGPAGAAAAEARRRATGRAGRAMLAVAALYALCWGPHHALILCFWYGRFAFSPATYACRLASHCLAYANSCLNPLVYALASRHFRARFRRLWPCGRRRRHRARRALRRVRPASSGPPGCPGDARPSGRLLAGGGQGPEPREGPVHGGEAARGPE

cells = assay type: functional, cell-based; conditions: HEK-CNG
[3] = Luminescence Cell-Based Dose Confirmation HTS to Identify Inhibitors of Platelet Dense Granule Release. [Related pubchem assays: 1663 (Primary HTS), 1678 (Summary of Project)]; assay type: functional
[4] = target: Luciferin 4-monooxygenase (Photinus pyralis, UniProt P08659); test: inhibition of purified Photinus pyralis luciferase – biochemical, luminescence, dose response (AID 1891)
Chain of Luciferin 4-monooxygenase (P08659 whole entry): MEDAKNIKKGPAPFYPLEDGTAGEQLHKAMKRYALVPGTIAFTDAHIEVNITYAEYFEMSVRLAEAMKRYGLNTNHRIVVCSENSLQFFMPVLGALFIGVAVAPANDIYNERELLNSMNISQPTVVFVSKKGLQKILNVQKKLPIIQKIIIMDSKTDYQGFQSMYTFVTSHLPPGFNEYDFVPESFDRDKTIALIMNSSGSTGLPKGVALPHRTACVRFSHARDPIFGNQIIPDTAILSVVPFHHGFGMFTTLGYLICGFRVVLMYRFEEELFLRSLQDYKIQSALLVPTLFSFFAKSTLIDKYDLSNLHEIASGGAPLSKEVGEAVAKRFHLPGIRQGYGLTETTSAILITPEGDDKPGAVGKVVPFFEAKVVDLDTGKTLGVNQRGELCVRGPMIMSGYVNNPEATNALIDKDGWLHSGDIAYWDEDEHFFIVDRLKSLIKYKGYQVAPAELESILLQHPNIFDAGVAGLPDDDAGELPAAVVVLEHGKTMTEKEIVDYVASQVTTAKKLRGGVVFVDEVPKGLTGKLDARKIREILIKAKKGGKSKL

BJ [5] = test: BJ-TERT-LT-ST fibroblast viability loss – cell-based, RAS-independent, luminescence, dose response (AID 1935); assay type: functional; conditions: Homo sapiens;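 note: BJ fibroblasts immortalized with TERT plus LT and ST oncogenes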
[6] = HEK-293T viability loss after treatment – luminescence, T-cell screen hits, cytotoxicity control for TCR NF-kB inhibitor project, dose response (AID 489026); assay type: functional, cell-based;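 note: cells exposed to compound about 14 hours before the viability readout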
BJ [7] = test: growth inhibition of engineered Ras-driven BJ cells – cell-based, alamar blue fluorescence, cherrypicked samples, dose response (AID 2631); assay type: functional; conditions: Homo sapiens;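 note: confirmatory dose-response assay in RAS-dependent BJ fibroblasts engineered with TERT, LT and ST, with cytotoxicity read by fluorescence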
[8] = DRD fibroblast viability loss – cell-based, non-viral oncogenic, luminescence, dose response (AID 1934); assay type: functional; conditions: Homo sapiens
BJ [9] = test: cells; assay type: functional, cell-based; conditions: Homo sapiens
BJ [10] = test: BJ-TERT fibroblast viability loss – cell-based, RAS-independent, luminescence, dose response (AID 1933); assay type: functional; conditions: Homo sapiens
Cysteine protease ATG4B = target: T4, Cysteine protease ATG4B (Homo sapiens, UniProt Q9Y4P1); assay type: functional;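 note: Fluorescence-based dose-response confirmation assay measuring inhibition of ATG4B activity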
T4 sequence (Q9Y4P1 whole entry): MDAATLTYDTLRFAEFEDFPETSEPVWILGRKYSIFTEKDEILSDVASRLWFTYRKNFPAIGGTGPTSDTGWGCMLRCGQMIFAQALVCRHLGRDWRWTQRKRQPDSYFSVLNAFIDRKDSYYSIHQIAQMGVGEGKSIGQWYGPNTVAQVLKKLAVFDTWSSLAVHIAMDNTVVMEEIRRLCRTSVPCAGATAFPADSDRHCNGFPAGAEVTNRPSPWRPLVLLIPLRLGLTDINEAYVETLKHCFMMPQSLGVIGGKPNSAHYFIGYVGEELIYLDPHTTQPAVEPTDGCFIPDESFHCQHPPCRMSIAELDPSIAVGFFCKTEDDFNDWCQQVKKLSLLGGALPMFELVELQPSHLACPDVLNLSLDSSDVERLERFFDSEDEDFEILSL

Phospholipase A2 = Phospholipase A2 (Homo sapiens, UniProt P04054); assay type: functional;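 note: confirmatory dose-response counterscreen on phospholipase A2, testing hits that came from an ultra-high-throughput screen for ATG4B inhibitors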
Chain of Phospholipase A2 (P04054 whole entry): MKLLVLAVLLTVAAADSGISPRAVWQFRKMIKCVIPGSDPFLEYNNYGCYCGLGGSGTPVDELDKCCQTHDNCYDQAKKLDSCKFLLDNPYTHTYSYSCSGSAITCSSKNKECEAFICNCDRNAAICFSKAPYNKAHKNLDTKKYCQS

[11] = target: T5, COUP transcription factor 2 (Homo sapiens, UniProt P24468); test: Luminescence-based cell-based high throughput dose response assay to identify inhibitors of COUP-TFII (NR2F2).; assay type: functional;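 note: HEK293 cells transiently cotransfected with COUP-TFII expression vector and reporter; luciferase reporter luminescence driven by COUP-TFII from the pX2-168 reporter plasmid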
T5 sequence (P24468 whole entry): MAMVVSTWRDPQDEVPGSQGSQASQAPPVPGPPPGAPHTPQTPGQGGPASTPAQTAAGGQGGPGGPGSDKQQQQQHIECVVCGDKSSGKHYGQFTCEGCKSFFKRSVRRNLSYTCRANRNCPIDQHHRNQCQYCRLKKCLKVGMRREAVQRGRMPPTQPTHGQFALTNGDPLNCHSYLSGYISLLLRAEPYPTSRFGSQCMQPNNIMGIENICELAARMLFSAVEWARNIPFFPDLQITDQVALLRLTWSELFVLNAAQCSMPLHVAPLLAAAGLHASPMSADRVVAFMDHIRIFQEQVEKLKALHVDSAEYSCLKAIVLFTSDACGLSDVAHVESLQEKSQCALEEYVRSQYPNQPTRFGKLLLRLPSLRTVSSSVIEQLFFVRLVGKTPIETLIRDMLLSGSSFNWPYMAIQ

INS1 = test: INS-1E survival protection against cytokine death – cell-based, luminescence, retest, dose response (AID 449756); assay type: functional; conditions: Rattus norvegicus;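 note: cell death triggered by IL-1 beta plus TNF-alpha plus IFN-gamma mixture; protective hits raise ATP signal compared with cytokine alone wells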
HEK293 = test: EBV LMP1 TES2 canonical NF-kB signalling blockers – cell-based, HEK293, luciferase, cherry-pick, dose response (AID 588343); assay type: functional; conditions: Homo sapiens
Protein Wnt-3a = Protein Wnt-3a (Mus musculus, UniProt P27467); test: antagonism of Wnt3a pathway luciferase reporter – Wnt-LIGHT cells, luminescence, selectivity assay for Gli-SUFU antagonist project, dose response (AID 651570); assay type: functional; conditions: read-out: IC50_Mean;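 note: Wnt-LIGHT reporter cells stimulated with conditioned medium from Wnt3a-producing cells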
Chain of Protein Wnt-3a (P27467 whole entry): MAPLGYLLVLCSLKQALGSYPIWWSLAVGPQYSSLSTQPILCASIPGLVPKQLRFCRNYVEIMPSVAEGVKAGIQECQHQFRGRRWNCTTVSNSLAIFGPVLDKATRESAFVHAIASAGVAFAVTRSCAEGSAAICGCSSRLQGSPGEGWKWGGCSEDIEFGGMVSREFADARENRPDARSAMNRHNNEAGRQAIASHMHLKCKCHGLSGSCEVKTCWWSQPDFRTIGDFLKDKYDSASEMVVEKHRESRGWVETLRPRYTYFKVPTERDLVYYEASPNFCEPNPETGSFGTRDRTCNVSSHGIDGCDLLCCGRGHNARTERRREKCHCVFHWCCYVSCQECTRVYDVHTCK

[12] = target: T6, Probable nicotinate-nucleotide adenylyltransferase (Staphylococcus aureus (strain N315), UniProt P65502); assay type: functional, Staphylococcus aureus subsp. aureus N315;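 for IC50 Mean: confirmatory dose-response retesting of NadD inhibitor hits first found in an ultra-high-throughput screen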
T6 sequence (P65502 whole entry): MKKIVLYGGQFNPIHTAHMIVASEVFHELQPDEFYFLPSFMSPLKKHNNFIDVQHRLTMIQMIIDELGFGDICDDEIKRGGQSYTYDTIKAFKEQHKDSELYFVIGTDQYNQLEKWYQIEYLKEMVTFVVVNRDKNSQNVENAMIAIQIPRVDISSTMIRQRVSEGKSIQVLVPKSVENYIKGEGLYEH

[13] = target: T6, Probable nicotinate-nucleotide adenylyltransferase; assay type: functional, Staphylococcus aureus subsp. aureus N315; conditions: read-out: IC50_Mean
[14] = target: T7, Calpain-2 catalytic subunit (Sus scrofa, UniProt P43367); test: m-calpain protease blockers, concentration series – biochemical, fluorogenic peptide substrate, dose response (AID 1420); assay type: functional
T7 sequence (P43367 whole entry): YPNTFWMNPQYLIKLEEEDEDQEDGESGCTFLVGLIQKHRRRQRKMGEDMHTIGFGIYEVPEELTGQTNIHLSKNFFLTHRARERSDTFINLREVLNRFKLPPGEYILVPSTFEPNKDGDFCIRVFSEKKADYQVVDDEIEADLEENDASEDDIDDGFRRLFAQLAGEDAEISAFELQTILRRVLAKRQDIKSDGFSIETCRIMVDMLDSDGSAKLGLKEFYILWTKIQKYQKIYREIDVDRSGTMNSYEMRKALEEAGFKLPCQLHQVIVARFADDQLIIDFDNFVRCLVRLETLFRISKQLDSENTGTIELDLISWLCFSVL

[15] = system: Streptococcus sp. 'group A'; test: Streptococcus pyogenes SK(-)GAS viability under kanamycin – luminescence, BacTiterGlo, confirmation, counter-screen for streptokinase expression inhibitor project, dose response (AID 1900); assay type: functional, organism-based
Streptococcus = test: GAS UMAA2166 growth inhibition – luminescence, BacTiterGlo, counter-screen for streptokinase expression inhibitor project, dose response (AID 1915); assay type: functional, organism-based;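 note: potency for reduction of bacterial viability or growth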

Question: Which AC50 [1] does the source give for `Cc1cccn2c(=O)c3cc(C(=O)NCCN4CCOCC4)c(=N)n(CCCN4CCOCC4)c3nc12` here?
Answer: The AC50 was 4.63 µM (active).

Question: What about the AC50 [2] of the same compound?
Answer: Its AC50 is 8.19 µM (active).

Question: With `CC1CC(=O)NN=C1c1ccc(NCCO)c([N+](=O)[O-])c1` (stereo not given) as the compound, how does the IC50 (Galanin receptor type 3) read?
Answer: Its IC50 is 0.367 µM (active).

Question: And the EC50 (cells)?
Answer: The EC50 was > 29.9 µM (inactive).

Question: And the EC50 [3]?
Answer: The EC50 was < 0.088 µM (active).

Question: And the EC50 [4]?
Answer: Its EC50 is > 112 µM (not active).

Question: Which EC50 (BJ [5]) does the source give for `C[C@@H]1C=CC(=O)O[C@@H]1c1ccc(Cl)cc1` here?
Answer: The EC50 was 16.7 µM (active).

Question: And the IC50 [6]?
Answer: The IC50 was > 80 µM (inactive).

Question: What about the EC50 (BJ [7]) of the same compound?
Answer: Its EC50 is 0.547 µM (active).

Question: And the EC50 [8]?
Answer: The EC50 was 5.84 µM (active).

Question: And the EC50 (BJ [9])?
Answer: The EC50 was 23.8 µM (active).

Question: What about the EC50 (BJ [10]) of the same compound?
Answer: Its EC50 is 21.3 µM (active).

Question: Which results are given for `CC1CC(C)CN(C(=O)C2CCN(S(=O)(=O)c3ccc4c(c3)CC(C)N4C(=O)C3CC3)CC2)C1` (stereo not given)?
Answer: IC50 (Cysteine protease ATG4B): 14.5 µM (active); IC50 (Phospholipase A2): 7.55 µM (active)

Question: What does the source list for `Cc1sc2ncnc(NCC3COc4ccccc4O3)c2c1C` (stereo not given)?
Answer: IC50 [11]: 3.38 µM (active); AC50 (INS1): 1.68 µM (active); AC50 (HEK293): 35.9 µM (active); IC50 (Protein Wnt-3a): 0.441 µM (active)

Question: Which results are given for `CCCc1cc(=O)[nH]c(SCC(=O)N2N=C(c3ccc(Cl)cc3)CC2c2ccco2)n1` (stereo not given)?
Answer: IC50 (Cysteine protease ATG4B): 20.5 µM (inactive); IC50 (Phospholipase A2): 16.6 µM (active); IC50 [12]: 9.52 µM (active); IC50 [13]: 52.9 µM (active)

Question: For `Cn1c(N)c(C(=O)COC(=O)c2cnc(Cl)c(Cl)c2)c(=O)n(C)c1=O`, which IC50 (Galanin receptor type 3) is on record?
Answer: Its IC50 is > 29.9 µM (inactive).

Question: What about the IC50 [14] of the same compound?
Answer: Its IC50 is 10.1 µM (active).

Question: What about the EC50 (cells) of the same compound?
Answer: The EC50 was > 29.9 µM (inactive).

Question: Which results are given for `O=C(COc1ccc(Cl)cc1)Nc1ccc(C(=O)NCc2cccnc2)cc1`?
Answer: AC50 (INS1): < 0.195 µM (active); EC50 (BJ [5]): 18.8 µM (inconclusive); EC50 (BJ [7]): 25.6 µM (active); EC50 [8]: > 150 µM (inconclusive); EC50 (BJ [9]): 2.87 µM (active); EC50 (BJ [10]): > 150 µM (not active)

Question: For `Cc1cc(N/N=C\c2ccc(Br)cc2)nc(-n2nc(C)cc2C)n1`, which AC50 (INS1) is on record?
Answer: The AC50 was 2.43 µM (active).

Question: What about the EC50 [15] of the same compound?
Answer: Its EC50 is 1.01 µM (active).

Question: And the EC50 (Streptococcus)?
Answer: Its EC50 is 3.74 µM (active).

Question: What about the AC50 (HEK293) of the same compound?
Answer: Its AC50 is 3.83 µM (active).
